{"source": "ChEMBL document CHEMBL4680171", "about": "“Oxadiazolylthiazoles as novel and selective antifungal agents” (Eur J Med Chem, 2020)", "key": {"[1]": {"assay": "Selectivity index, ratio of maximum non-toxic concentration for human Caco-2 cells to MIC for antifungal activity against Candida parapsilosis ATCC 22019", "type": "toxicity", "details": "read-out: Selectivity Index"}, "[2]": {"assay": "Selectivity index, ratio of CC50 for African green monkey Vero cells to MIC for antifungal activity against Candida parapsilosis CAB 502638", "type": "toxicity", "details": "read-out: Selectivity Index"}, "[3]": {"assay": "Selectivity index, ratio of maximum non-toxic concentration for human Caco-2 cells to MIC for antifungal activity against Candida glabrata ATCC MYA-2950", "type": "toxicity", "details": "read-out: Selectivity Index"}, "Clostridioides difficile": {"test_system": "Clostridioides difficile", "assay": "Antibacterial activity against Clostridium difficile BAA1870 assessed as reduction in bacterial growth by CLSI based broth microdilution method", "type": "functional"}, "[4]": {"assay": "Selectivity index, ratio of CC50 for African green monkey Vero cells to MIC for antifungal activity against Candida albicans ATCC 10231", "type": "toxicity", "details": "read-out: Selectivity Index"}, "[5]": {"assay": "Selectivity index, ratio of CC50 for African green monkey Vero cells to MIC for antifungal activity against Cryptococcus neoformans NR41300", "type": "toxicity", "details": "read-out: Selectivity Index"}, "Staphylococcus aureus": {"test_system": "Staphylococcus aureus", "assay": "Antibacterial activity against methicillin resistant Staphylococcus aureus subsp. aureus USA300 assessed as reduction in bacterial growth by CLSI based broth microdilution method", "type": "functional"}, "[6]": {"assay": "Selectivity index, ratio of maximum non-toxic concentration for human Caco-2 cells to MIC for antifungal activity against Candida glabrata ATCC 66032", "type": "toxicity", "details": "read-out: Selectivity Index"}, "[7]": {"assay": "Selectivity index, ratio of maximum non-toxic concentration for human Caco-2 cells to MIC for antifungal activity against fluconazole-resistant Candida auris 384", "type": "toxicity", "details": "read-out: Selectivity Index"}, "Candida albicans [8]": {"test_system": "Candida albicans", "assay": "Antifungal activity against Candida albicans SS5314 assessed as reduction in fungal growth by CLSI based broth microdilution method", "type": "functional"}, "[9]": {"assay": "Selectivity index, ratio of maximum non-toxic concentration for human Caco-2 cells to MIC for antifungal activity against fluconazole-resistant Candida albicans NR29448", "type": "toxicity", "details": "read-out: Selectivity Index"}, "Candida albicans [10]": {"test_system": "Candida albicans", "assay": "Antifungal activity against fluconazole-resistant Candida albicans NR29448 assessed as reduction in fungal growth incubated for 24 hrs by CLSI based broth microdilution method", "type": "functional"}, "Pichia kudriavzevii [11]": {"test_system": "Pichia kudriavzevii", "assay": "Antifungal activity against Candida krusei CAB 396420 assessed as reduction in fungal growth incubated for 24 hrs by CLSI based broth microdilution method", "type": "functional"}, "[12]": {"assay": "Cytotoxicity against human Caco-2 cells assessed as cell viability up to 64 ug/ml incubated for 24 hrs by MTS assay", "type": "cell-based", "details": "dose <=64 µg/ml, read-out: Activity"}, "Pichia kudriavzevii [13]": {"test_system": "Pichia kudriavzevii", "assay": "Antifungal activity against Candida krusei ATCC 34135 assessed as reduction in fungal growth incubated for 24 hrs by CLSI based broth microdilution method", "type": "functional"}, "Cryptococcus neoformans [14]": {"test_system": "Cryptococcus neoformans", "assay": "Antifungal activity against Cryptococcus neoformans NR48770 assessed as reduction in fungal growth incubated for 48 hrs by CLSI based broth microdilution method", "type": "functional"}, "Candida albicans [15]": {"test_system": "Candida albicans", "assay": "Antifungal activity against Candida albicans ATCC 10231 assessed as reduction in fungal growth incubated for 24 hrs by CLSI based broth microdilution method", "type": "functional"}, "[16]": {"assay": "Selectivity index, ratio of maximum non-toxic concentration for human Caco-2 cells to MIC for antifungal activity against Candida krusei CAB 396420", "type": "toxicity", "details": "read-out: Selectivity Index"}, "[17]": {"assay": "Selectivity index, ratio of maximum non-toxic concentration for human Caco-2 cells to MIC for antifungal activity against Cryptococcus gattii NR43210", "type": "toxicity", "details": "read-out: Selectivity Index"}, "[18]": {"assay": "Selectivity index, ratio of CC50 for African green monkey Vero cells to MIC for antifungal activity against Aspergillus fumigatus NR 35303", "type": "toxicity", "details": "read-out: Selectivity Index"}, "Nakaseomyces glabratus": {"test_system": "Nakaseomyces glabratus", "assay": "Antifungal activity against Candida glabrata ATCC MYA-2950 assessed as reduction in fungal growth incubated for 24 hrs by CLSI based broth microdilution method", "type": "functional"}, "[19]": {"assay": "Selectivity index, ratio of CC50 for African green monkey Vero cells to MIC for antifungal activity against fluconazole-resistant Candida albicans NR29448", "type": "toxicity", "details": "read-out: Selectivity Index"}, "[20]": {"assay": "Selectivity index, ratio of CC50 for African green monkey Vero cells to MIC for antifungal activity against Candida glabrata ATCC MYA-2950", "type": "toxicity", "details": "read-out: Selectivity Index"}, "Lactobacillus gasseri": {"test_system": "Lactobacillus gasseri", "assay": "Antibacterial activity against Lactobacillus gasseri HM-400 assessed as reduction in bacterial growth by CLSI based assay"}, "[21]": {"test_system": "Cryptococcus gattii species complex", "assay": "Antifungal activity against Cryptococcus gattii NR43209 assessed as reduction in fungal growth incubated for 48 hrs by CLSI based broth microdilution method", "type": "functional, Cryptococcus bacillisporus"}, "Aspergillus fumigatus [22]": {"test_system": "Aspergillus fumigatus", "assay": "Antifungal activity against Aspergillus fumigatus NR 35303 assessed as reduction in fungal growth incubated for 24 hrs by CLSI based broth microdilution method", "type": "functional"}, "Lacticaseibacillus casei": {"test_system": "Lacticaseibacillus casei", "assay": "Antibacterial activity against Lactobacillus casei HM-334 assessed as reduction in bacterial growth by CLSI based assay", "type": "organism-based"}, "[23]": {"assay": "Selectivity index, ratio of CC50 for African green monkey Vero cells to MIC for antifungal activity against Cryptococcus neoformans NR41298", "type": "toxicity", "details": "read-out: Selectivity Index"}, "[24]": {"assay": "Selectivity index, ratio of maximum non-toxic concentration for human Caco-2 cells to MIC for antifungal activity against Cryptococcus gattii NR43209", "type": "toxicity", "details": "read-out: Selectivity Index"}, "[25]": {"assay": "Selectivity index, ratio of maximum non-toxic concentration for human Caco-2 cells to MIC for antifungal activity against Aspergillus fumigatus NR 35304", "type": "toxicity", "details": "read-out: Selectivity Index"}, "Escherichia coli [26]": {"test_system": "Escherichia coli", "assay": "Antibacterial activity against Escherichia coli JW55031 harboring tolC mutation assessed as reduction in bacterial growth by CLSI based broth microdilution method", "type": "functional"}, "Aspergillus fumigatus [27]": {"test_system": "Aspergillus fumigatus", "assay": "Antifungal activity against Aspergillus fumigatus NR 35304 assessed as reduction in fungal growth incubated for 24 hrs by CLSI based broth microdilution method", "type": "functional"}, "Lactobacillus crispatus": {"test_system": "Lactobacillus crispatus", "assay": "Antibacterial activity against Lactobacillus crispatus HM-370 assessed as reduction in bacterial growth by CLSI based assay"}, "[28]": {"assay": "Selectivity index, ratio of CC50 for African green monkey Vero cells to MIC for antifungal activity against Candida krusei CAB 396420", "type": "toxicity", "details": "read-out: Selectivity Index"}, "Candida parapsilosis [29]": {"test_system": "Candida parapsilosis", "assay": "Antifungal activity against Candida parapsilosis CAB 502638 assessed as reduction in fungal growth incubated for 24 hrs by CLSI based broth microdilution method", "type": "functional", "details": "Lodderomyces parapsilosis"}, "[30]": {"assay": "Selectivity index, ratio of maximum non-toxic concentration for human Caco-2 cells to MIC for antifungal activity against Candida krusei ATCC 34135", "type": "toxicity", "details": "read-out: Selectivity Index"}, "Cryptococcus neoformans [31]": {"test_system": "Cryptococcus neoformans", "assay": "Antifungal activity against Cryptococcus neoformans NR41298 assessed as reduction in fungal growth incubated for 48 hrs by CLSI based broth microdilution method", "type": "functional"}, "[32]": {"assay": "Selectivity index, ratio of maximum non-toxic concentration for human Caco-2 cells to MIC for antifungal activity against fluconazole-resistant Candida auris 383", "type": "toxicity", "details": "read-out: Selectivity Index"}, "[33]": {"assay": "Selectivity index, ratio of CC50 for African green monkey Vero cells to MIC for antifungal activity against fluconazole-resistant Candida auris 381", "type": "toxicity", "details": "read-out: Selectivity Index"}, "Candida albicans [34]": {"test_system": "Candida albicans", "assay": "Antibiofilm activity against Candida albicans NR29448 assessed as reduction in biofilm formation at 0.5XMIC incubated for 24 hrs by crystal violet staining based assay relative to control", "type": "functional"}, "Candida parapsilosis [35]": {"test_system": "Candida parapsilosis", "assay": "Antifungal activity against Candida parapsilosis ATCC 22019 assessed as reduction in fungal growth incubated for 24 hrs by CLSI based broth microdilution method", "type": "functional", "details": "Lodderomyces parapsilosis"}, "[36]": {"assay": "Selectivity index, ratio of CC50 for African green monkey Vero cells to MIC for antifungal activity against Candida parapsilosis ATCC 22019", "type": "toxicity", "details": "read-out: Selectivity Index"}, "Escherichia coli [37]": {"test_system": "Escherichia coli", "assay": "Antibacterial activity against Escherichia coli BW25113 assessed as reduction in bacterial growth by CLSI based broth microdilution method", "type": "functional"}}}
{"smiles": "Cc1nc(-c2ccc(C(C)(C)C)cc2)sc1-c1nnc(N[C@@H]2CCCC[C@@H]2N)o1", "note": "(relative stereo)", "values": [{"measurement": "selectivity ratio", "setting": "[1]", "result": "≤ 64"}, {"measurement": "selectivity ratio", "setting": "[2]", "result": "≤ 64"}, {"measurement": "selectivity ratio", "setting": "[3]", "result": "≤ 64"}, {"measurement": "MIC", "setting": "Clostridioides difficile", "result": 64, "unit": "µg/mL"}, {"measurement": "selectivity ratio", "setting": "[4]", "result": "≤ 64"}, {"measurement": "selectivity ratio", "setting": "[5]", "result": "≤ 64"}, {"measurement": "MIC", "setting": "Staphylococcus aureus", "result": "> 64", "unit": "µg/mL"}, {"measurement": "selectivity ratio", "setting": "[6]", "result": "≤ 64"}, {"measurement": "selectivity ratio", "setting": "[7]", "result": "≤ 64"}, {"measurement": "MIC", "setting": "Candida albicans [8]", "result": 1, "unit": "µg/mL"}, {"measurement": "selectivity ratio", "setting": "[9]", "result": "≤ 64"}, {"measurement": "MIC", "setting": "Candida albicans [10]", "result": 8, "unit": "µg/mL"}, {"measurement": "MIC", "setting": "Pichia kudriavzevii [11]", "result": 1, "unit": "µg/mL"}, {"measurement": "viability at 24 h", "setting": "[12]", "result": 100, "unit": "%"}, {"measurement": "MIC", "setting": "Pichia kudriavzevii [13]", "result": 2, "unit": "µg/mL"}, {"measurement": "MIC", "setting": "Cryptococcus neoformans [14]", "result": 1, "unit": "µg/mL"}, {"measurement": "MIC", "setting": "Candida albicans [15]", "result": 8, "unit": "µg/mL"}, {"measurement": "selectivity ratio", "setting": "[16]", "result": "≤ 64"}, {"measurement": "selectivity ratio", "setting": "[17]", "result": "≤ 64"}, {"measurement": "selectivity ratio", "setting": "[18]", "result": "≤ 64"}, {"measurement": "MIC", "setting": "Nakaseomyces glabratus", "result": 0.125, "unit": "µg/mL"}, {"measurement": "selectivity ratio", "setting": "[19]", "result": "≤ 64"}, {"measurement": "selectivity ratio", "setting": "[20]", "result": "≤ 64"}, {"measurement": "MIC", "setting": "Lactobacillus gasseri", "result": 128, "unit": "µg/mL"}, {"measurement": "MIC", "setting": "[21]", "result": 1, "unit": "µg/mL"}, {"measurement": "MIC", "setting": "Aspergillus fumigatus [22]", "result": 8, "unit": "µg/mL"}, {"measurement": "MIC", "setting": "Lacticaseibacillus casei", "result": "> 128", "unit": "µg/mL"}, {"measurement": "selectivity ratio", "setting": "[23]", "result": "≤ 64"}, {"measurement": "selectivity ratio", "setting": "[24]", "result": "≤ 64"}, {"measurement": "selectivity ratio", "setting": "[25]", "result": "≤ 64"}, {"measurement": "MIC", "setting": "Escherichia coli [26]", "result": "> 64", "unit": "µg/mL"}, {"measurement": "MIC", "setting": "Aspergillus fumigatus [27]", "result": 4, "unit": "µg/mL"}, {"measurement": "MIC", "setting": "Lactobacillus crispatus", "result": "> 128", "unit": "µg/mL"}, {"measurement": "selectivity ratio", "setting": "[28]", "result": "≤ 64"}, {"measurement": "MIC", "setting": "Candida parapsilosis [29]", "result": 1, "unit": "µg/mL"}, {"measurement": "selectivity ratio", "setting": "[30]", "result": "≤ 64"}, {"measurement": "MIC", "setting": "Cryptococcus neoformans [31]", "result": 2, "unit": "µg/mL"}, {"measurement": "selectivity ratio", "setting": "[32]", "result": "≤ 64"}, {"measurement": "selectivity ratio", "setting": "[33]", "result": "≤ 64"}, {"measurement": "inhibition (INH)", "setting": "Candida albicans [34]", "result": 40, "unit": "%"}, {"measurement": "MIC", "setting": "Candida parapsilosis [35]", "result": 1, "unit": "µg/mL"}, {"measurement": "selectivity ratio", "setting": "[36]", "result": "≤ 64"}, {"measurement": "MIC", "setting": "Escherichia coli [37]", "result": "> 64", "unit": "µg/mL"}]}
